Experiments:
[1] = Stability in simulating gastric fluid (SGF); format: physicochemical; conditions: SGF pH 2.2, up to 120 min
Experimental: On completion of incubation period, the solution is centrifuged and supernatant is taken. To the supernatant, ice cold acetonitrile containing IS is added, vortexed and injected into LCMS/MS.
(§1) API 4000, ESI Agilent 1100 column: Gemini Nx 100 mm×4.6 mm 5.μ; column temperature: 30° C.; eluent A: 0.1% formic acid in water, eluent B: acetonitrile; gradient: 0-2.5 min 95% A, 5% B; 2.5-2.6 min 5% A, 95% B; 2.6-4.2 min 95% A, 5% B; flow rate: 0.8 ml/min; ESI. Q1:464.098, Q3:144.255
SIF/SGF: 2.38 g of SIF original powder (biorelavant media) is dissolved in 1 L of milliQ water. The pH of the solution is adjusted for SIF (7.4) and SGF (2.2) with 0.1N HCl. The ratios of the peak areas (F) at the respective time points in relation to the peak areas at the starting time are calculated. […] The peak area (F) is directly correlated to the amount of test compound which is quantified by the LC MS method.
In simulating intestinal and gastric fluid, the area of the formula B compared with zero minute area to 120 min.

[2] = In vitro stability in human plasma (LC-MS); format: in vitro ADME
Experimental: (§2) The final concentration of the test compound in the assay is 5 micromolar. […] C. The 100 microlitres of aliquot at time point was removed and diluted with ice cold acetonitrile containing IS (200 µL) to stop the reactions. Samples are centrifuged at 10,000 RPM for 5 minutes to precipitate proteins. Supernatants are transferred to micro centrifuge tubes and stored at −20° C. for analysis of LC/MS/MS. The percent parent remaining of the test substance is calculated as ratio of peak area at each time point to peak area ratio at zero min, multiplied by 100.
as §1

[3] = In vitro stability in rat plasma (LC-MS); format: in vitro ADME
Experimental: as §2, §1

plasma protein = experiment: Plasma protein binding (dialysis), mouse; format: in vitro ADME
Experimental: A compound solution (1 mM in DMSO) (5 μL), according to the invention is added to the respective plasma matrices of rat or human or mouse (1 ml).
Add 150 μl of phosphate buffer to receiving side of the dialysis well. […] Precipitate with Acetonitrile and dilute samples prior to analysis in 1.5 ml polypropylene tubes. Remove 50 μl from the sample side of dialysis well and add 50 μl of phosphate buffer+300 μl of acetonitrile containing IS. Remove 50 μl from the buffer side of the dialysis well and add 50 μl of respective matrix plasma+300 μl of ACN. Then vortexed and centrifuged for 5 min, and supernatant is taken and injected into LCMS.
Different test concentration ranging from 0.1 μM to 20 μM are made in methanol:water (90:10). Test solutions are added to the premixed matrix containing plasma:phosphate buffer (50:50). Precipitate with 300 μl of ice cold acetonitrile containing IS, vortexes and centrifuged. Supernatant is taken and injected into LCMS.
Percentage of plasma protein binding was obtained via Equation (2): % Fraction unbound=(concentration on the buffer side/concentration on the sample side)*100

[4] = Anticoagulant activity (PT, APTT) in human plasma; format: biochemical; conditions: 0.1 to 1.0 μg/mL, PT and APTT
Experimental: The anticoagulant action of the test substance (compound formula-B) and rivaroxaban was determined in vitro using human plasma. The human plasma used for this experiment was separated from the blood collected in sodium citrate as anticoagulant. The prothrombin time (PT) was determined by using a commercial test kit (Neoplastin from Stagid) and APTT was determined using (Synthasil kit by IL). […] Coagulation was then started by addition of thromboplastin, and time when coagulation occurred was determined. The concentration of test substance which effected a doubling of prothrombin time was determined.

Compound: O=CN(C[C@H]1CN(c2ccc(N3CCOCC3=O)cc2)C(=O)O1)C(=O)c1ccc(Cl)s1 [compound formula (B), 5-chloro-N-formyl-N-({(5S)-2-oxo-3-[4-(3-oxomorpholin-4-yl)phenyl]-1,3-oxazolidin-5-yl}methyl)thiophene-2-carboxamide]
- Conclusion (stability in SGF) [1]: is stable
- Amount of test product detected (conversion to rivaroxaban from zero min) [2]: Neglible
- Amount of test product detected (conversion to rivaroxaban from zero min) [3]: min. Neglible
- Observation: amount of test product (plasma protein): Not quantificable amount of test
- Observation: formed Rivaroxaban bound to plasma protein (plasma protein): moderate-High bound to plasma
- Anticoagulant activity [4]: significant anticoagulant activity

From patent publication US20160251342A1, “ALDEHYDE DERIVATIVE OF SUBSTITUTED OXAZOLIDINONES” (WANBURY LTD., priority 2012, published 2016)
